We go through 22 compounds from patent US10100019B2.

By GI50 is commonly meant the concentration at which growth is held to half of that of the control.

One data set deals with H3122 cells. In words: Cytotoxicity in non-small cell lung cancer cell line H3122 (SRB). It is filed as cell-based, human. To be noted: H3122 cells, three days, SRB. The procedure:
Particularly, 4,000 H3122 cells containing ALK enzyme were distributed in each well of a 96 well plate together with 100 μl of DMEM (Dulbecco's Modified Eagle's Medium). One day later, the compound of the present invention was added to each well at different concentrations of […]. DMSO (dimethylsulfoxide) was added to the well that was not loaded with the compound by the same amount as the compound. Three days after the addition of the compound, DMEM was eliminated. 10% TCA (trichloroacetic acid) was added to fix the cells. The wells were washed with running water three times and the live cells were stained with SRB solution (1 sulphorodamine B). Then, OD was measured to calculate the population of the live cells.

The test system of the next data set is H2228 cells. In words: cells. To be noted: Homo sapiens, NCI-H2228, 72 h, read-out: Cytotoxicity H2228 (GI50 μM), H2228 cells, three days, SRB.

For the compound `COc1ccc(C2(CN)CCCC2)cc1Nc1ncc(Cl)c(Nc2ccccc2S(=O)(=O)C(C)C)n1` [Example 1, N2-(5-(1-(aminomethyl)cyclopentyl)-2-methoxyphenyl)-5-chloro-N4-(2-(isopropylsulfonyl)phenyl)pyrimidine-2,4-diamine], the GI50 amounted to 3.06 µM with H3122 cells (Homo sapiens, NCI-H3122, 72 h) and 2.1 µM in the data set on H2228 cells. For `COc1ccc(C2(CN)CCCCC2)cc1Nc1ncc(Cl)c(Nc2ccccc2S(=O)(=O)C(C)C)n1` [Example 2, N2-(5-(1-(aminomethyl)cyclohexyl)-2-methoxyphenyl)-5-chloro-N4-(2-(isopropylsulfonyl)phenyl)pyrimidine-2,4-diamine], in that order: 2.63 µM and 3.77 µM. As to `COc1ccc(CC2(N)CC2)cc1Nc1ncc(Cl)c(Nc2ccccc2S(=O)(=O)C(C)C)n1` [Example 3, N2-(5-((1-aminocyclopropyl)methyl)-2-methoxyphenyl)-5-chloro-N4-(2-(isopropylsulfonyl)phenyl)pyrimidine-2,4-diamine], the GI50 was determined as 0.77 µM in the data set with H3122 cells (Homo sapiens, NCI-H3122, 72 h) and 1.21 µM with H2228 cells. In the case of `COc1ccc(CCN)cc1Nc1ncc(Cl)c(Nc2ccccc2S(=O)(=O)C(C)C)n1` [Example 4, N2-(5-(2-aminoethyl)-2-methoxyphenyl)-5-chloro-N4-(2-(isopropylsulfonyl)phenyl) pyrimidine-2,4-diamine], the GI50 in the data set with H3122 cells is 0.08 µM; in the data set on H3122 cells (Homo sapiens, NCI-H3122, 72 h) it was at most 0.1 µM. Regarding `COc1ccc(C2(CN3CCCCC3)CCCC2)cc1Nc1ncc(Cl)c(Nc2ccccc2S(=O)(=O)C(C)C)n1` [Example 5], the GI50 in the data set with H3122 cells was determined as 10 µM; in the data set with H2228 cells, 7.8 µM. For `COc1ccc(C2(CN3CCOCC3)CCCC2)cc1Nc1ncc(Cl)c(Nc2ccccc2S(=O)(=O)C(C)C)n1` [Example 6, 5-chloro-N4-(2-(isopropylsulfonyl)phenyl)-N2-(2-methoxy-5-(1-(morpholinomethyl)cyclopentyl)phenyl)pyrimidine-2,4-diamine], in that order: 10 µM and 10 µM. Regarding `COc1ccc(CCCNC(=O)C(F)(F)F)cc1Nc1ncc(Cl)c(Nc2ccccc2S(=O)(=O)C(C)C)n1` [Example 40, N-(3-(3-((5-chloro-4-((2-(isopropylsulfonyl)phenyl)amino)pyrimidine-2-yl)amino)-4-methoxyphenyl)propyl)-2,2,2-trifluoroacetamide], the GI50 in the data set on H3122 cells (Homo sapiens, NCI-H3122, 72 h) is 0.33 µM. `COc1ccc(CCCN)cc1Nc1ncc(Cl)c(Nc2ccccc2S(=O)(=O)C(C)C)n1` [Example 41, N2-(5-(3-aminopropyl)-2-methoxyphenyl)-5-chloro-N4-(2-(isopropylsulfonyl)phenyl)pyrimidine-2,4-diamine]: the GI50 in the data set on H3122 cells (Homo sapiens, NCI-H3122, 72 h) turned out to be 0.19 µM. As to `COc1ccc(CC(N)=O)cc1Nc1ncc(Cl)c(Nc2ccccc2S(=O)(=O)C(C)C)n1` [Example 42, 2-(3-((5-chloro-4-((2-(isopropylsulfonyl)phenyl)amino)pyrimidine-2-yl)amino)-4-methoxyphenyl)acetamide], the GI50 with H3122 cells (Homo sapiens, NCI-H3122, 72 h) was determined as 0.15 µM. With `CCOCCOC(=O)Cc1ccc(OC)c(Nc2ncc(Cl)c(Nc3ccccc3S(=O)(=O)C(C)C)n2)c1` [Example 43, 2-ethoxyethyl 2-(3-((5-chloro-4-((2-(isopropylsulfonyl)phenyl)amino)pyrimidine-2-yl)amino)-4-methoxyphenyl)acetate], the GI50 in the data set on H3122 cells (Homo sapiens, NCI-H3122, 72 h) was above 10 µM. Still for that read-out and setting: in the case of `COc1ccc(CC(=O)O)cc1Nc1ncc(Cl)c(Nc2ccccc2S(=O)(=O)C(C)C)n1` [Example 44, 2-(3-((5-chloro-4-((2-(isopropylsulfonyl)phenyl)amino)pyrimidine-2-yl)amino)-4-methoxyphenyl)acetic acid] it was 1 µM. Consider `COc1ccc(CC(=O)N2CCOCC2)cc1Nc1ncc(Cl)c(Nc2ccccc2S(=O)(=O)C(C)C)n1` [Example 45, 2-(3-((5-chloro-4-((2-(isopropylsulfonyl)phenyl)amino)pyrimidine-2-yl)amino)-4-methoxyphenyl)-1-morpholinoethane-1-one], for which the GI50 in the data set with H3122 cells turned out to be 10 µM. `COc1ccc(CC(=O)N2CCCCC2)cc1Nc1ncc(Cl)c(Nc2ccccc2S(=O)(=O)C(C)C)n1` [Example 46, 2-(3-((5-chloro-4-((2-(isopropylsulfonyl)phenyl)amino)pyrimidine-2-yl)amino)-4-methoxyphenyl)-1-(piperidine-1-yl)ethane-1-one] showed a 50% growth inhibitory concentration (GI50) in the data set on H3122 cells of 10 µM. The compound `COc1ccc(CC(=O)N2CCNCC2)cc1Nc1ncc(Cl)c(Nc2ccccc2S(=O)(=O)C(C)C)n1` [Example 48, 2-(3-((5-chloro-4-((2-(isopropylsulfonyl)phenyl)amino)pyrimidine-2-yl)amino)-4-methoxyphenyl)-1-(piperazine-1-yl) ethane-1-one] gave a GI50 with H3122 cells (Homo sapiens, NCI-H3122, 72 h) of 0.58 µM.

Turning to `COc1ccc(CC(=O)Nc2ccncc2)cc1Nc1ncc(Cl)c(Nc2ccccc2S(=O)(=O)C(C)C)n1` [Example 49, 2-(3-((5-chloro-4-((2-(isopropylsulfonyl)phenyl)amino)pyrimidine-2-yl)amino)-4-methoxyphenyl)-N-(pyridine-4-yl)acetamide], the GI50 with H3122 cells was 10 µM.

Take `COc1ccc(CC(=O)Nc2ccccc2)cc1Nc1ncc(Cl)c(Nc2ccccc2S(=O)(=O)C(C)C)n1` [Example 50, 2-(3-((5-chloro-4-((2-(isopropylsulfonyl)phenyl)amino)pyrimidine-2-yl)amino)-4-methoxyphenyl)-N-phenylacetamide]: it took 10 µM to inhibit growth in the data set with H3122 cells by half (GI50). `COc1cc(Br)c(CCN)cc1Nc1ncc(Cl)c(Nc2ccccc2S(=O)(=O)C(C)C)n1` [Example 51, N2-(5-(2-aminoethyl)-4-bromo-2-methoxyphenyl)-5-chloro-N4-(2-(isopropylsulfonyl)phenyl)pyrimidine-2,4-diamine]: the GI50 in the data set on H3122 cells (Homo sapiens, NCI-H3122, 72 h) was 1.1 µM.

`COc1cc(-c2cnn(C)c2)c(CCN)cc1Nc1ncc(Cl)c(Nc2ccccc2S(=O)(=O)C(C)C)n1` [Example 52, N2-(5-(2-aminoethyl)-2-methoxy-4-(1-methyl-1H-pyrazole-4-yl)phenyl)-5-chloro-N4-(2-(isopropylsulfonyl)phenyl)pyrimidine-2,4-diamine] showed a concentration for 50% growth inhibition (GI50) in the data set on H3122 cells (Homo sapiens, NCI-H3122, 72 h) of 0.096 µM. `COc1cc(C(C)(C)N)c(C)cc1Nc1ncc(Cl)c(Nc2ccccc2S(=O)(=O)C(C)C)n1` [Example 57, N2-(4-(2-aminopropane-2-yl)-2-methoxy-5-methylphenyl)-5-chloro-N4-(2-(isopropylsulfonyl)phenyl)pyrimidine-2,4-diamine] returned a 50% growth inhibitory concentration (GI50) in the data set with H3122 cells (Homo sapiens, NCI-H3122, 72 h) of 0.012 µM. Compound `COc1cc(CN)c(C)cc1Nc1ncc(Cl)c(Nc2ccccc2S(=O)(=O)C(C)C)n1` [Example 68, N2-(4-(aminomethyl)-2-methoxy-5-methylphenyl)-5-chloro-N4-(2-(isopropylsulfonyl)phenyl)pyrimidine-2,4-diamine] came in with a GI50 in the data set on H3122 cells (Homo sapiens, NCI-H3122, 72 h) of 0.11 µM.

Regarding `COc1cc(C[N+](C)(C)C)c(C)cc1Nc1ncc(Cl)c(Nc2ccccc2S(=O)(=O)C(C)C)n1` [Example 69, 1-(4-((5-chloro-4-((2-(isopropylsulfonyl)phenyl)amino)pyrimidine-2-yl)amino)-5-methoxy-2-methylphenyl)-N,N,N-trimethylmethanealuminum iodide], the GI50 in the data set with H3122 cells (Homo sapiens, NCI-H3122, 72 h) stood at 1.7 µM.

In the data set with H3122 cells (Homo sapiens, NCI-H3122, 72 h), `COc1ccc(CCN2CCNCC2)cc1Nc1ncc(Cl)c(Nc2ccccc2S(=O)(=O)C(C)C)n1` [Example 73, 5-chloro-N4-(2-(isopropylsulfonyl)phenyl)-N2-(2-methoxy-5-(2-(piperazine-1-yl)ethyl)phenyl)pyrimidine-2,4-diamine] returned a GI50 of 0.16 µM.
